Nine molecules from patent publication US8686224B2, “Plant defense signal peptides” (priority 2005, dated 2014) can be followed below.

Non-standard residues stand in square brackets, D forms with d. Residues, ends and D or L forms follow the SMILES beside them. Primed or numbered codes have the meaning given here. No end group written: not given here. *: point of attachment. APDP″ = photoaffinity cross-linker coupled to Cys through a disulfide bond, [N-]=[N+]=Nc1ccc(C(=O)NCCCCNC(=O)CCS*)c(O)c1; Tyr(3-I) = N[C@@H](Cc1ccc(O)c(I)c1)C(=O)O

Assay [1] concerns Arabidopsis suspension cultured cells. The experiment in a line: Alkalinization assay with Arabidopsis suspension cultured cells. As to conditions: for activity in the alkalinization assay: Arabidopsis suspension cultured cells, pH of media after 20 min. It counts as cell-based, Arabidopsis thaliana. How it is done: For the alkalinization assay, cells suspensions are grown in a volume of 40 ml in a 125 ml flask. Tobacco and Arabidopsis cells are typically grown for 3-5 days before use. Tomato cells are typically grown for 4-7 days before use. Soybean cells are generally grown for 3-7 days before use. Preferably, cells are in mid to log or log phase when they are to be used for the alkalinization assay. A 1 ml pipette tip with the end cut off (to prevent clogging of the tip with the cells) is used to aliquot 1 ml of the cells from the suspension into a well in a 24-well culture cluster plate. The flask is swirled between aliquots to ensure that the cells remain evenly dispersed throughout the cell suspension and an roughly equivalent number of cells is provided to each well. The plate(s) are then shaken at 160 rpm for 1 hour. Small aliquots ([…]) of extracted peptide fractions are then added to the wells. After 20 min, the pH of the cell media is measured and recorded.
Alkalinization Assay. Arabidopsis suspension cells were grown with shaking in the dark in 125 mL flasks, using 40 mL NT media as previously described (Pearce et al. Proc. Natl. Acad. Sci. USA 98:12843-12847, 2001). The cells were transferred weekly (2.5 mL) and used for assays 3-5 days after transfer. One mL aliquots of cells were transferred to wells of 24-well culture plates and allowed to equilibrate for one hour while agitated on a rotary shaker at 160 rpm. Aliquots of 1-10 μL from extracts or fractions eluted from HPLC columns were added to cells and the pH of the media was monitored after 20 min.
Alkalinization assay. Medium alkalinization activity of Arabidopsis suspension cultured cells by AtPep1 analogs was analyzed as previously described for systemin (Pearce et al., Science 253:895-897, 1991), RALF (Pearce et al. Proc. Natl. Acad. Sci. USA 98:12843-12847, 2001), HypSys peptides (Pearce and Ryan. J. Biol. Chem. 278:30044-30050, 2003; Pearce et al., Nature 411:817-820, 2001), and AtPep1 (supra). The alkalinization activity of azido-Cys-AtPep1 were carried out after incubation the analog with cells in darkness for 10 min, when the pH was recorded.
Analogs of AtPep1 from the C-terminus of AtPep1 were synthesized and assayed in the alkalinization assay. One mL aliquots of 4 day old Arabidopsis cells were allowed to equilibrate on an orbital shaker at 180 rpm for one hour. A 10 μL aliquot of each peptide solution was added to the cells. Peptide concentrations of 0.25 nM, 2.5 nM, and 25 nM were tested. After 20 min, the pH of the media was recorded.
The 15-mer from the carboxy-terminus of AtPep1 ([…] (SEQ ID NO: 78)) was substituted with alanine at each position to assess which amino acids were necessary for the alkalinizing activity. […] The set of substituted 15-mer peptides was assayed using four-day-old Arabidopsis cells. […] of each peptide (2.5 pmoles) was added to 1 ml of cells to make a final concentration of 2.5 nM. After 20 min, the pH of the media was recorded. The data is the average of three separate experiments.

The target in assay [2] is T1, AtPep1 receptor (At1g73080, AtPEPR1) (Arabidopsis thaliana, UniProt Q9SSL9).
T1 sequence (Q9SSL9 29-1123): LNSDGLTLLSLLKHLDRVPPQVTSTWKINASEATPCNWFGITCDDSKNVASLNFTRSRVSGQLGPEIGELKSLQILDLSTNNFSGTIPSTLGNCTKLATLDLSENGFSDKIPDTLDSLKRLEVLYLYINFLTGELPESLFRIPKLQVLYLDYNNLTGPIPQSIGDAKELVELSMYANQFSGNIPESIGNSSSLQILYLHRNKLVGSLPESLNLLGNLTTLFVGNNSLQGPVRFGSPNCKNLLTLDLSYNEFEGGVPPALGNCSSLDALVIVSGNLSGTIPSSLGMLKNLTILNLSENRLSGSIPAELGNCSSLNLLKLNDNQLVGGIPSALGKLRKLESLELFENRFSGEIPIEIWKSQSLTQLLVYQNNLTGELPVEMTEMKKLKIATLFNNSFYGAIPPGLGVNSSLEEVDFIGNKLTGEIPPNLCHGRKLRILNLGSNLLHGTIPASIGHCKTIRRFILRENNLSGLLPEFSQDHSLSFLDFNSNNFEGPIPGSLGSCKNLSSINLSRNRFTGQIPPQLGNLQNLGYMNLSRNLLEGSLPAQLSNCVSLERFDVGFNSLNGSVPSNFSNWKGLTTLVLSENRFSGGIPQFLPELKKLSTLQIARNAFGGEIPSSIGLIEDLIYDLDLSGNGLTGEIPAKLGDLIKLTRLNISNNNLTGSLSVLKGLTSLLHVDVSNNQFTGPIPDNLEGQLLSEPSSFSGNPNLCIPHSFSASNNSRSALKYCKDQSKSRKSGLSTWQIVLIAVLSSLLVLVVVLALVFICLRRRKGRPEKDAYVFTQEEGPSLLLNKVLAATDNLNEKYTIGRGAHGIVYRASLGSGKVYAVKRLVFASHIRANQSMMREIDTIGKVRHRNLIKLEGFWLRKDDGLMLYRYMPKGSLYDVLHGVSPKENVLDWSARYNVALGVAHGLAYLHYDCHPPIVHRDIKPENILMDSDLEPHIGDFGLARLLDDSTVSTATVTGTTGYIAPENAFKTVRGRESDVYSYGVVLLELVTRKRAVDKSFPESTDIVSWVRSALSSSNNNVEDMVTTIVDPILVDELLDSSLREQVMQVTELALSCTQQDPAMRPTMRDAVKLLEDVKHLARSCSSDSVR
The experiment in a line: Binding assay of 125I1-Tyr-AtPep1 with Arabidopsis suspension cultured cells.
Method: Binding assays. […] The filtered cells were washed three times with 5 mL of cold MS medium containing 3% sucrose, suspended in 1 mL MS medium containing 3% sucrose in a glass test tube, and analyzed for total radioactivity in a gamma-ray counter (Isodata 2020; Isodata Inc., Palatine, Ill.).

Another assay addresses T2, AtPEPR1 (Arabidopsis thaliana, UniProt Q9SSL9).
T2 construct: Tobacco cells were transformed with a CaMV-35S-AtPEPR1 gene; expressed in transfected cells; host or cells: tobacco suspension-cultured cells (Agrobacterium-mediated, CaMV 35S promoter)
T2 sequence (Q9SSL9 29-1123): T1 sequence (Q9SSL9 29-1123)
The experiment in a line: Medium alkalinization of transgenic tobacco cells expressing AtPEPR1. As to conditions: for change in pH: 2.5 nanomolar. Type of assay: cell-based. From the text:
Tobacco cells were transformed with a CaMV-35S-AtPEPR1 gene to determine whether the foreign receptor protein was targeted to the cell surface, where, in response to AtPep1, it would activate intracellular signaling to effect the alkalinization of the medium of the transgenic tobacco cells. Expression of the AtPEPR1 gene was confirmed by RT-PCR analysis of RNA from three independently transformed tobacco cell lines. […] AtPep2-7 was also supplied to the transgenic tobacco cells expressing AtPEPR1.
To clarify whether AtPEPR2 binds to AtPep1, the AtPEPR2 coding region was fused to the CaMV 35S promoter and introduced into tobacco suspension-cultured cells by Agrobacterium. Tobacco cells expressing AtPEPR1 and GUS genes were also created as positive and negative controls, respectively. […] These transgenic lines were analyzed for alkalinizing activity as previously described (Pearce et al., Proc. Natl. Acad. Sci. USA 98, 12843-12847, 2001).
The response to all AtPep peptides in transgenic tobacco cells expressing either AtPEPR1 or AtPEPR2 was analyzed by the medium alkalinization assay.

The mark [3] stands for this setting: AtPEPR1 expressing tobacco cells.

On to “15-mer RGKEKVSSGRPGQHN with Ser at position 7 replaced by Ala (-ASGR-) [Ser to Ala substitution at position 7]”, for which the “activity in the alkalinization assay” value in assay [1] is recorded as “little activity”. For the same molecule, the “competition with the non-substituted 15-mer for receptor binding” value in assay [2] is listed as “neither of these analogs were able to compete”.

For the molecule `CC(C)[C@H](NC(=O)[C@H](CCCCN)NC(=O)[C@@H](NC(=O)[C@H](C)NC(=O)[C@@H](N)Cc1ccc(O)c(I)c1)[C@@H](C)O)C(=O)N[C@@H](CCCCN)C(=O)N[C@@H](C)C(=O)N[C@@H](CCCCN)C(=O)N[C@@H](CCC(N)=O)C(=O)N[C@@H](CCCNC(=N)N)C(=O)NCC(=O)N[C@@H](CCCCN)C(=O)N[C@@H](CCC(=O)O)C(=O)N[C@@H](CCCCN)C(=O)N[C@H](C(=O)N[C@@H](CO)C(=O)N[C@@H](CO)C(=O)NCC(=O)N[C@@H](CCCNC(=N)N)C(=O)N1CCC[C@H]1C(=O)NCC(=O)N[C@@H](CCC(N)=O)C(=O)N[C@@H](Cc1c[nH]cn1)C(=O)N[C@@H](CC(N)=O)C(=O)O)C(C)C` [mono-iodo-Tyr-AtPep1] (H-[Tyr(3-I)]ATKVKAKQRGKEKVSSGRPGQHN-OH), the “activity in the alkalinization assay” value in assay [1] is “as fully active as AtPep1”. Further, the “time to equilibration of binding” value in assay [2] is on record as at most 4 min. The “peptide concentration saturating the sites” value in assay [2] (10^6 cells/assay) is recorded as “about 0.1 nM”. The molecule further showed a Kd in assay [2] (Scatchard analysis of the saturation data, Arabidopsis suspension cultured cells) of 0.25 nM. Also, in assay [2] (saturation kinetics), the “time to maximal binding to Arabidopsis cells” value is given as at most 10 min.

For the molecule “EIKARGKNKTKPTPSSGKGGKHN (EIKARGKNKTKPTPSSGKGGKHN) [AtPep4]”, in the assay with AtPEPR1 (setting [3]), the “change in pH” value was “did not increase medium pH” and the “alkalinization of the medium” value was “weaker activity”.

Molecule “GLPGKKNVLKKSRESSGKPGGTN [AtPep5, GLPGKKNVLKKSRESSGKPGGTN]” returned an EC50 at AtPEPR1 of around 0.25 nM.

“ITAVLRRRPRPPPYSSGRPGQNN [AtPep6, ITAVLRRRPRPPPYSSGRPGQNN]”: the EC50 at AtPEPR1 is around 0.25 nM. The molecule also displayed a maximal change at AtPEPR1 (setting [3]) of 1.2 pH units.

Turning to RGKEKVSSGRPGQHN [Peptide 15-mer], the “activity at the lowest concentration tested” value in assay [1] (0.25 nM) is listed as “substantial activity”. Moreover, in assay [1], the “activity in the alkalinization assay” value is reported as “nearly as active as the native peptide”.

As to SSGRPGQHN, in assay [1], the “activity in the alkalinization assay” value was “inactive”.

As for “VSGNVAARKGKQQTSSGKGGGTN (VSGNVAARKGKQQTSSGKGGGTN) [AtPep7]”, in the assay with AtPEPR1 (setting [3]), the “change in pH” value is “did not increase medium pH” and the “alkalinization of the medium” value is on record as “weaker activity”.

In the case of “azido-Cys-AtPep1: Cys-AtPep1 coupled through a disulfide bond to the photoaffinity cross-linker APDP (C(APDP″)ATKVKAKQRGKEKVSSGRPGQHN)”, the “activity in the alkalinization assay” value in assay [1] is given as “as fully active as the native peptide”.
